Test system: Histomonas meleagridis
Assay: In vitro lethal activity (minimal lethal concentration) towards Histomonas meleagridis culture, Trypan blue vital coloration
Format: cell-based
Conditions: lowest dilution in which no live organisms were observed; H. meleagridis culture 10^6 parasites/ml, 39° C., anaerobic
Protocol: The in vitro activity of the several essential oil compounds was assessed using the following technique. Aliquots of 1 ml of H. meleagridis culture (10^6 parasites/ml) were incubated anaerobicaly for 24 h at 39° C. Twelve two-fold dilutions of a stock solution of each compound were prepared in 96-well U bottom plates (Prolabo, Lyon, France) in Tween 80 (Sigma, L'Isle d'Abeau, France) and added to the parasites. The initial dilution was 2% ([…]). After incubation for 24 h and 48 h, the number of live parasite in each culture was estimated by vital coloration with Trypan blue 0.4% (Gibco, BRL Life technology, Cergy Pontoise, France). The lowest dilution in which no live organisms were observed was defined as the minimal lethal concentration (MLC).

SMILES	minimal lethal concentration (MLC) [ppm]
O=C/C=C/c1ccccc1 [cinnamaldehyde, trans-]	250
Cc1ccc(C(C)C)cc1 [cymene, p-]	500
C=CC(C)(O)CCC=C(C)CCC=C(C)C (stereo not drawn) [nerolidol]	125

Reference: US20130261191A1, “USE OF ESSENTIAL OIL COMPOUNDS AS HISTOMONASTAT” (DSM IP ASSETS B.V., priority 2007, published 2013)
